The target in one test is T1, Human DNA polymerase λ (Homo sapiens, UniProt Q9UGP5).
T1 construct: made in house
T1 sequence (Q9UGP5 1-575): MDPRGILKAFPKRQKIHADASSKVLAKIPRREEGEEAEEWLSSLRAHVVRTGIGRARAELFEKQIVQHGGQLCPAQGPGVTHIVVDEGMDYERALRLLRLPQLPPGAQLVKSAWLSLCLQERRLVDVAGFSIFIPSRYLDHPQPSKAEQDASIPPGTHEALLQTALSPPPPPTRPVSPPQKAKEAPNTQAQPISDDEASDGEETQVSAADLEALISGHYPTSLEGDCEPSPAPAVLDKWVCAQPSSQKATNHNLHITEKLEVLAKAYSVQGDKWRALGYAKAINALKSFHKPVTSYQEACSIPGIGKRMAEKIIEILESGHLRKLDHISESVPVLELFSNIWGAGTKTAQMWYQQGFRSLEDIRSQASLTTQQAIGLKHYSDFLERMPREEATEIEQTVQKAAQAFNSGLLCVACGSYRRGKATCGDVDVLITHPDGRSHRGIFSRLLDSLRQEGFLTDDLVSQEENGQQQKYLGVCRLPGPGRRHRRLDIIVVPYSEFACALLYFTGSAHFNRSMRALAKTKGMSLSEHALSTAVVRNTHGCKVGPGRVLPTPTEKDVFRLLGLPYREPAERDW
Put plainly: DNA polymerase activity assay, human pol λ. The following applies: for Inhibitory effect on human pol λ activity: 50 μM of each compound, Figure 2. Format: biochemical. Here is the method: (§1) Pols from mammals, a fish (cherry salmon), an insect (fruit fly) and a plant (cauliflower) were purified, and prokaryotic pols and other DNA metabolic enzymes, such as T7 RNA polymerase, T4 polynucleotide kinase and bovine deoxyribonuclease I, were purchased as described in our previous report. The activities of all pols and other DNA metabolic enzymes were measured as described in previous reports.
(§2) The components of the pol assay were poly(dA)/oligo(dT)18 and dTTP as the DNA template-primer and 2′-deoxyribonucleoside 5′-triphosphate (dNTP) substrate, respectively. VK2, VK3, and their synthesized derivatives (i.e., MK-3, MK-2 and MK-1) were dissolved in dimethyl sulfoxide (DMSO) at various concentrations and sonicated for 30 s. The sonicated samples (4 μL) were mixed with 16 μL of each pol enzyme (final amount, 0.05 units) in 50 mM Tris-HCl (pH 7.5) containing 1 mM dithiothreitol, 50% glycerol and 0.1 mM EDTA, and kept at 0 °C for 10 min. These inhibitor–enzyme mixtures (8 μL) were added to 16 μL of each standard enzyme reaction mixture (50 mM Tris-HCl [pH 7.5], 1 mM dithiothreitol, 1 mM MgCl2, 15% glycerol, 10 μM poly(dA)/oligo(dT)18 and 10 μM [^3H]-dTTP), and incubation was carried out at 37 °C for 60 min, except for Taq pol, which was incubated at 74 °C for 60 min. Activity without the inhibitor was considered to be 100%, and the activity remaining at each concentration of inhibitor was determined relative to this value. One unit of pol activity was defined as the amount of enzyme that catalyzed the incorporation of 1 nmol dNTP (dTTP) into the synthetic DNA template-primer (poly(dA)/oligo(dT)18, A/T = 2/1) in 60 min at 37 °C under normal reaction conditions for each enzyme (scintillation counts: approximately 1 pmol of incorporated radioactive nucleotides = 100 cpm).

Another test concerns the target T2, Human DNA polymerase ɛ (Homo sapiens, UniProt Q07864).
T2 construct: made in house
Put plainly: DNA polymerase activity assay, human pol ɛ. The class given is biochemical. The following applies: B-family pol; read-out: IC50 Value of MK-2, Human DNA polymerase ɛ. Here is the method:
as §1
(§3) The components of the pol assay were poly(dA)/oligo(dT)18 and dTTP as the DNA template-primer and 2′-deoxyribonucleoside 5′-triphosphate (dNTP) substrate, respectively. VK2, VK3, and their synthesized derivatives (i.e., MK-3, MK-2 and MK-1) were dissolved in dimethyl sulfoxide (DMSO) at various concentrations and sonicated for 30 s. The sonicated samples (4 μL) were mixed with 16 μL of each pol enzyme (final amount, 0.05 units) in 50 mM Tris-HCl (pH 7.5) containing 1 mM dithiothreitol, 50% glycerol and 0.1 mM EDTA, and kept at 0 °C for 10 min. […] Activity without the inhibitor was considered to be 100%, and the activity remaining at each concentration of inhibitor was determined relative to this value. […]

Test [1] has as its target Calf Terminal deoxynucleotidyl transferase (Bos taurus, UniProt P06526). Put plainly: DNA polymerase activity assay, calf TdT. The class given is biochemical. The following applies: X-family pol; read-out: IC50 Value of MK-2, Calf Terminal deoxynucleotidyl transferase. The protocol: as §1, §3
The target in test [2] is X-family pols (mammalian). Put plainly: DNA polymerase activity assay, mammalian X-family pols. The class given is biochemical, mammals. The following applies: range over mammalian X-family pols β, λ, TdT; read-out: 50% inhibition of the X family of pols. Here is the method: as §1, §3
Another test deals with T3, Human DNA polymerase γ (Homo sapiens, UniProt P54098).
T3 construct: made in house
T3 sequence (P54098 1-1239): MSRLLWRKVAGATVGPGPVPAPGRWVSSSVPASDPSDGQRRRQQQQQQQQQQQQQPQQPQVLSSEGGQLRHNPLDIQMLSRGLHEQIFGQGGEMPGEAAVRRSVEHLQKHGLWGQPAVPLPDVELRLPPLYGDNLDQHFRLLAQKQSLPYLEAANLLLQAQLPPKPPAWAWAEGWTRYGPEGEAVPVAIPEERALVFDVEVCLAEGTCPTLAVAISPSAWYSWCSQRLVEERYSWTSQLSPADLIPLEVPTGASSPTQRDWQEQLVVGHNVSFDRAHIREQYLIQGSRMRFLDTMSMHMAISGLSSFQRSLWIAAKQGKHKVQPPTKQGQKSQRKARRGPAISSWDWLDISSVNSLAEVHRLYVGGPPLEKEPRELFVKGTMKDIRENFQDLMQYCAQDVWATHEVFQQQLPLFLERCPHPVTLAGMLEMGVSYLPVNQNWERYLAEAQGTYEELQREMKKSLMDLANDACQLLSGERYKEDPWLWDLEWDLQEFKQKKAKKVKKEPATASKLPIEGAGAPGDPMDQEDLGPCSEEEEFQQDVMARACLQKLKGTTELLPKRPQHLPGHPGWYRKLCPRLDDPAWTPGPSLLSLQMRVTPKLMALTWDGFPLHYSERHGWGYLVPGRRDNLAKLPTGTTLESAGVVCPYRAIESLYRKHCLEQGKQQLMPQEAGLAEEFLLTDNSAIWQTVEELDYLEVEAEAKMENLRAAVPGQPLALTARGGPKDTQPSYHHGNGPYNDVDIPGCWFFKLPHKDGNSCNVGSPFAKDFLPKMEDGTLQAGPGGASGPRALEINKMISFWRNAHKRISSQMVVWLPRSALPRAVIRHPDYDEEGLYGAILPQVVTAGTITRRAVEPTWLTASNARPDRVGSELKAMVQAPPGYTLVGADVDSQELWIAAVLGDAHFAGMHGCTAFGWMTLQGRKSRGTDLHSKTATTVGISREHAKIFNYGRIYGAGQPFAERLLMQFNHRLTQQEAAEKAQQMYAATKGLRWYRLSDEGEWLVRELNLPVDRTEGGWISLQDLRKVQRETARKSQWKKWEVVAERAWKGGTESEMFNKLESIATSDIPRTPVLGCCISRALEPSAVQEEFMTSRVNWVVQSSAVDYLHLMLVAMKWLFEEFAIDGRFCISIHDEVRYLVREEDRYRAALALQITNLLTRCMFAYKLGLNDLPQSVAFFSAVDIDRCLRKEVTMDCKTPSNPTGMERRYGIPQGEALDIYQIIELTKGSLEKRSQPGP
Put plainly: DNA polymerase activity assay, human pol γ. The class given is biochemical. Here is the method:
as §1, §2

Test [3] concerns the target Cherry salmon DNA polymerase δ (Oncorhynchus masou, UniProt Z9UCE0HTX2). Put plainly: DNA polymerase activity assay, cherry salmon pol δ. The class given is biochemical. The following applies: fish pol; read-out: IC50 Value of MK-2, Cherry salmon DNA polymerase δ. Here is the method: as §1, §3

Sequence of Calf Terminal deoxynucleotidyl transferase (P06526 whole entry): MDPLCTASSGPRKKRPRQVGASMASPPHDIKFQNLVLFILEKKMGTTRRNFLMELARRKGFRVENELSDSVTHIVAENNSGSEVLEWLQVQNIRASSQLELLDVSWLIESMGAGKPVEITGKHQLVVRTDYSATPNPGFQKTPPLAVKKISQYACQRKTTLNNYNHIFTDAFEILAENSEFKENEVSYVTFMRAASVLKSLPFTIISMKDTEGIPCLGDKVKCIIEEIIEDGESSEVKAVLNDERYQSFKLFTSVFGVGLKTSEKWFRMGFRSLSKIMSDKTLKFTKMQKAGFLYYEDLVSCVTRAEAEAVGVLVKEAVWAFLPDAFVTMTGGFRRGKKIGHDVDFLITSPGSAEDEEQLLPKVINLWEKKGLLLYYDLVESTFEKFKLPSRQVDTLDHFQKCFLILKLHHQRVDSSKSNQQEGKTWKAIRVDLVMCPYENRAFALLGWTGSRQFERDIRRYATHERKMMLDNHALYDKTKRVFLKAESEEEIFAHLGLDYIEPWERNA
T2 sequence (Q07864 whole entry): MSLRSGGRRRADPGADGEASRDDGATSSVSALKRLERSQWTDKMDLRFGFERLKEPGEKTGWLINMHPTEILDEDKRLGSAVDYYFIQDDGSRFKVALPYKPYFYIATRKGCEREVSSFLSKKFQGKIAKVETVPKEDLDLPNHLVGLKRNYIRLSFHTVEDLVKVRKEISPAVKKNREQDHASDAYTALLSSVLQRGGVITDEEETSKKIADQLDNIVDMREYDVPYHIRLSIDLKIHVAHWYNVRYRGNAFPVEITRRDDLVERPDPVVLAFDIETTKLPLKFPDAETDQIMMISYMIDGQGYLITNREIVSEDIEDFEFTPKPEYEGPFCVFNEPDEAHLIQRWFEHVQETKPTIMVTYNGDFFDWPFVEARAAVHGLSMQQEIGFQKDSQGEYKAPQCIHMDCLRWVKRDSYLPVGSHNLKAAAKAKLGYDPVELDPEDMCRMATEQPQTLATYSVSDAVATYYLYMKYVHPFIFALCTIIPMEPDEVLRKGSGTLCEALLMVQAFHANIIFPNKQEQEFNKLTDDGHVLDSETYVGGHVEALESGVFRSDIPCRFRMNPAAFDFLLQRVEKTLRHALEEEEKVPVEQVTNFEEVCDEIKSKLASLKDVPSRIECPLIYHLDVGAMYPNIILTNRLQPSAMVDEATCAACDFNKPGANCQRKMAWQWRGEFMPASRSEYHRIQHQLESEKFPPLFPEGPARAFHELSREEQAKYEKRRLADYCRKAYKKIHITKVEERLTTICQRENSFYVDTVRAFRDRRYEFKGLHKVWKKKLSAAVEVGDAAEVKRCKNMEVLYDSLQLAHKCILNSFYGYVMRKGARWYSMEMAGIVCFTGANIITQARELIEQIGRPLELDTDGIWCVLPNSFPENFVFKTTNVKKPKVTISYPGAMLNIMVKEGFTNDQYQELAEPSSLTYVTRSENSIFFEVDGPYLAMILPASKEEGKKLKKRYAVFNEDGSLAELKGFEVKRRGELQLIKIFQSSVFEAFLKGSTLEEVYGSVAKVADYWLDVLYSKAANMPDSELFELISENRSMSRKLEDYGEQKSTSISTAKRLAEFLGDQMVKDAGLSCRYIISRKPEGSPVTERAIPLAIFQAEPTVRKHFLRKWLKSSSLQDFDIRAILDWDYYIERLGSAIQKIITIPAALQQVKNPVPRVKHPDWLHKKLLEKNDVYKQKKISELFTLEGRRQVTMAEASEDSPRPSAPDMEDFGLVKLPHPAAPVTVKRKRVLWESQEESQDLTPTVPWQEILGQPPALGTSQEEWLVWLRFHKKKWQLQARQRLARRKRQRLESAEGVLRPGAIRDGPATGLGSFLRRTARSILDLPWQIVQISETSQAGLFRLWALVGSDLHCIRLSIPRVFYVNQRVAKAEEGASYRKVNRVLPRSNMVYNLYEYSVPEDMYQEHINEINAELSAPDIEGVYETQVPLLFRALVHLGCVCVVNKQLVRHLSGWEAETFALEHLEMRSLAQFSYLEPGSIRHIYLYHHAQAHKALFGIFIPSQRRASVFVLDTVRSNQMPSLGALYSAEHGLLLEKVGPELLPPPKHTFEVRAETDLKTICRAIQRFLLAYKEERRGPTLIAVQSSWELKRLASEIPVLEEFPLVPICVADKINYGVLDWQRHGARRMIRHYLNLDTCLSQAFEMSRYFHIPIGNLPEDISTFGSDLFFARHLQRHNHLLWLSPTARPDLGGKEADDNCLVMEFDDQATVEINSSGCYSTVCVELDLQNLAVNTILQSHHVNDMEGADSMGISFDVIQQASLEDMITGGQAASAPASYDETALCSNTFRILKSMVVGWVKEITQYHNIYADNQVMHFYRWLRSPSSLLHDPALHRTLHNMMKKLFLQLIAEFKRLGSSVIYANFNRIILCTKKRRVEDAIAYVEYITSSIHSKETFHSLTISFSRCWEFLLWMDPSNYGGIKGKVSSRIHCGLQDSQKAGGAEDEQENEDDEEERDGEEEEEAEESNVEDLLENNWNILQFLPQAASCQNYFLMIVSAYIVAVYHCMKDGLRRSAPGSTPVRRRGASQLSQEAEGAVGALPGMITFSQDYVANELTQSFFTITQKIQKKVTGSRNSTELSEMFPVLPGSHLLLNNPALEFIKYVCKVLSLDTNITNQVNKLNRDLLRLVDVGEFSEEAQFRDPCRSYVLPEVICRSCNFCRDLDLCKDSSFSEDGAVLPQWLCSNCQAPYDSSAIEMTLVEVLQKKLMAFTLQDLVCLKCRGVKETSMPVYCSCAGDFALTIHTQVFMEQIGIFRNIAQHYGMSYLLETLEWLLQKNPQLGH
Sequence of Cherry salmon DNA polymerase δ (Z9UCE0HTX2 1-856): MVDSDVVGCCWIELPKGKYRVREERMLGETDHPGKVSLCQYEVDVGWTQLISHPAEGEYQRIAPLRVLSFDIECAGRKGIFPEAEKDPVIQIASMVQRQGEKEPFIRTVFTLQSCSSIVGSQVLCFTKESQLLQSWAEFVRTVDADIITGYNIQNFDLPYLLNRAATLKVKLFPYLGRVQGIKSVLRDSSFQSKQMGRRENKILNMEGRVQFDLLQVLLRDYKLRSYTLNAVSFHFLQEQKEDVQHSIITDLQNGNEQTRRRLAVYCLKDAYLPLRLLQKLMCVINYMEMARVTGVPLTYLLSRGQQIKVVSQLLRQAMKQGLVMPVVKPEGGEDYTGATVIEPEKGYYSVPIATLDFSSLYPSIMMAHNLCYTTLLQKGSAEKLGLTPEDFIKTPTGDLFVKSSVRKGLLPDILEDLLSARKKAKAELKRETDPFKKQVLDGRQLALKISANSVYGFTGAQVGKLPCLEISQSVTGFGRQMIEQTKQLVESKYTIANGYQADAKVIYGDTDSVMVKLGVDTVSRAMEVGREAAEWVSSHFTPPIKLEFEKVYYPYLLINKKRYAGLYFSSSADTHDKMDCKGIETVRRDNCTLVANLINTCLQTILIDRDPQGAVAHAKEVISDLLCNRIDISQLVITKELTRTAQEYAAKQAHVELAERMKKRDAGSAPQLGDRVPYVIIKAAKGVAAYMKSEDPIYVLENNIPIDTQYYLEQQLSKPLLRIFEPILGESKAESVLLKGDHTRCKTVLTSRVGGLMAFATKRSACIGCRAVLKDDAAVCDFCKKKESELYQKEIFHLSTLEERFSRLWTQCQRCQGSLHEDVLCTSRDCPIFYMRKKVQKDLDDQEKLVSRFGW

For `CC(C)=CCC1=C(C)C(=O)c2ccccc2C1=O` [MK-1], the “Inhibitory effect on human pol λ activity” value at Human DNA polymerase λ is “inhibited the activity”.

As to `CC(C)=CCC/C(C)=C/CC1=C(C)C(=O)c2ccccc2C1=O` [MK-2], the “Inhibitory effect on human pol λ activity” value at Human DNA polymerase λ is given as “inhibited the activity”. Besides, the IC50 was 24.6 ± 1.4 µM at Human DNA polymerase λ (X-family pol, read-out: IC50 Value of MK-2, Human DNA polymerase λ); 28.2 ± 1.6 µM at Human DNA polymerase ɛ; 29.4 ± 1.7 µM in test [1]; 24.6 to 31 µM in test [2]; 68.8 ± 3.4 µM at Human DNA polymerase γ (A-family pol, poly(dA)/oligo(dT)18 and dTTP, read-out: IC50 Value of MK-2, Human DNA polymerase γ); 32.5 ± 1.9 µM in test [3].

On to `CC(C)=CCC/C(C)=C/CC/C(C)=C/CC1=C(C)C(=O)c2ccccc2C1=O` [MK-3], for which the “Inhibitory effect on human pol λ activity” value at Human DNA polymerase λ is “inhibited the activity”.

Take `CC(C)=CCC/C(C)=C/CC/C(C)=C/CC/C(C)=C/CC1=C(C)C(=O)c2ccccc2C1=O` [MK-4, menaquinone 4, reference compound]: the “Inhibitory effect on human pol λ activity” value at Human DNA polymerase λ is “had no effect on pol activity”. Further, at Human DNA polymerase γ (50 μM of each compound, Figure 2), the “Inhibitory effect on human pol γ activity” value is recorded as “had no effect on pol activity”.

The values above are taken from article PMC3083694, “Effects of Intermediates between Vitamins K2 and K3 on Mammalian DNA Polymerase Inhibition and Anti-Inflammatory Activity” (International Journal of Molecular Sciences, 2011).
